The results in this text go back to US5288706A, “Medicament for prevention and remedy of diseases of the pancreas and others” (Mitsui Toatsu Chemicals, Incorporated, priority 1987, dated 1994).

Each structure is given as a SMILES string. Where two headings read alike, the source gives them in different places. Non-standard residues stand in square brackets, D forms with d. Residues, ends and D or L forms follow the SMILES beside them. pGlu = O=C1CC[C@@H](C(=O)O)N1

The subject of one data set is ddy male mice. To be noted: mouse, in vivo, sc. How it is done: (§1) Thus, the medicament of the present invention is a safe medicament of extremely low toxicity and can be administered for a long period of time.
No toxicity was observed when 50 mg/kg and 100 mg/kg of FTS as the effective ingredient were subcutaneously administered for consecutive 14 days to a group of five ddy male mice of 5 weeks old.

A further data set relates to Wister rats. The conditions noted are these: rat, in vivo, sc, 30 mg/kg. As to the method: as §1
No toxicity was observed when 30 mg/kg of FTS as the effective ingredient wa subcutaneously administered for consecutive 21 days to a group of ten Wister rats of 5 weeks old.

On to `C[C@H](NC(=O)[C@@H]1CCC(=O)N1)C(=O)N[C@@H](CCCCN)C(=O)N[C@@H](CO)C(=O)N[C@@H](CCC(N)=O)C(=O)NCC(=O)NCC(=O)N[C@@H](CO)C(=O)N[C@@H](CC(N)=O)C(=O)O` [FTS, pGlu-Ala-Lys-Ser-Gln-Gly-Gly-Ser-Asn] ([pGlu]AKSQGGSN-OH), for which the toxicity result with ddy male mice (50 mg/kg), in the data set on ddy male mice (100 mg/kg) and with Wister rats was “No toxicity” in each case. Moreover, the “toxicity (external behavior observation, biochemical diagnosis of sera, pathological anatomy)” value in the data set with Wister rats is recorded as “no abnormal symptom”.
